The subject of this experiment is α7 integrin promoter. Kind of experiment: muscle cell-based assay: α7βgal+/− myoblasts/myotubes, LacZ reporter, β-galactosidase cleavage of FDG. More on the design: species or system mouse; Results in α7+/− β-galactosidase assay: scale not given here. To be noted: Myoblasts. Put shortly: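 Primary α7βgal+/− mouse myoblasts (LacZ knocked into α7 integrin exon 1, promoter retained), differentiated; promoter activity read as β-galactosidase conversion of non-fluorescent FDG to fluorescein. Hits followed by dose-response, western analysis and myostatin counterscreen.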

This is an account of results in US10028992B2, “Methods of treating muscular dystrophy” (BOARD OF REGENTS OF THE NEVADA SYSTEM OF HIGHER EDUCATION …, priority 2012, dated 2018).

As for `CCOc1ccc(Br)cc1S(=O)(=O)Nc1ccc(C(=O)Nc2ccccc2OC)cc1` [drawing 659], the “Results in α7+/− β-galactosidase assay” value was −0.08436 (0.5 uM); 0.06885 (1 uM); 0.1299 (5 uM); −0.03674 (10 uM); −0.08958 (20 uM); −0.05546 (40 uM).

Consider `O=C(NCc1ccccc1)c1csc(-c2cccnc2)n1` [drawing 660], for which the “Results in α7+/− β-galactosidase assay” value (0.5 uM) is recorded as −0.1908; the “Results in α7+/− β-galactosidase assay” value (1 uM) was −0.04939; the “Results in α7+/− β-galactosidase assay” value (5 uM) was found to be 0.2247; the “Results in α7+/− β-galactosidase assay” value (10 uM) is recorded as 0.1255; the “Results in α7+/− β-galactosidase assay” value (20 uM) is reported as 0.2423; the “Results in α7+/− β-galactosidase assay” value (40 uM) is 0.1166.

On to `O=C1C2CCCN2C(=O)N1CCCN1CCN(c2cccc(Br)c2)CC1` (stereo not drawn) [drawing 661], for which the “Results in α7+/− β-galactosidase assay” value (0.5 uM) was determined as 0.07667; the “Results in α7+/− β-galactosidase assay” value (1 uM) amounted to 0.0555; the “Results in α7+/− β-galactosidase assay” value (5 uM) was 0.04982; the “Results in α7+/− β-galactosidase assay” value (10 uM) was 0.05028; the “Results in α7+/− β-galactosidase assay” value (20 uM) worked out at 0.1016; the “Results in α7+/− β-galactosidase assay” value (40 uM) worked out at 0.1941.

As for `C=CCc1c(C)nc(-c2ccccc2)nc1N/N=C(\C)c1ccc(N)cc1` [drawing 662], the “Results in α7+/− β-galactosidase assay” value is listed as −0.00814 (0.5 uM); −0.05498 (1 uM); 0.04244 (5 uM); 0.0834 (10 uM); −0.05956 (20 uM); −0.02989 (40 uM).

As to `CC(C)(C)c1csc(NC(=O)c2cccnc2)n1` [drawing 663], the “Results in α7+/− β-galactosidase assay” value is, setting by setting: (0.5 uM) 0.2482; (1 uM) 0.1813; (5 uM) 0.09125; (10 uM) 0.06663; (20 uM) −0.2863; (40 uM) −0.3378.

Take `Cc1ccccc1/C=C1\C(=O)Nc2ccc(F)cc21` [drawing 664]: the “Results in α7+/− β-galactosidase assay” value is on record as 0.2562 (0.5 uM); 0.1979 (1 uM); 0.05318 (5 uM); 0.04838 (10 uM); −0.109 (20 uM); −0.1352 (40 uM).

`Cc1ccc2c(c1)/C(=C/c1ccccc1)C(=O)N2` [drawing 665]: the “Results in α7+/− β-galactosidase assay” value (0.5 uM) worked out at 0.07717; the “Results in α7+/− β-galactosidase assay” value (1 uM) stood at 0.02304; the “Results in α7+/− β-galactosidase assay” value (5 uM) was determined as 0.03576; the “Results in α7+/− β-galactosidase assay” value (10 uM) is given as 0.07323; the “Results in α7+/− β-galactosidase assay” value (20 uM) is on record as −0.484; the “Results in α7+/− β-galactosidase assay” value (40 uM) was −0.5725.

Consider `COC(=O)c1ccccc1CC(=O)CSc1nc(O)c(-c2ccccc2)c(O)n1` [drawing 666], for which the “Results in α7+/− β-galactosidase assay” value came out at 0.06548 (0.5 uM); 0.01829 (1 uM); 0.06613 (5 uM); 0.1141 (10 uM); 0.0713 (20 uM); 0.08837 (40 uM).

On to `Cc1ccc2c(c1)/C(=C/c1ccccc1F)C(=O)N2` [drawing 667], for which the “Results in α7+/− β-galactosidase assay” value (0.5 uM) is on record as −0.02616; the “Results in α7+/− β-galactosidase assay” value (1 uM) is recorded as 0.02782; the “Results in α7+/− β-galactosidase assay” value (5 uM) is on record as −0.04422; the “Results in α7+/− β-galactosidase assay” value (10 uM) is −0.06595; the “Results in α7+/− β-galactosidase assay” value (20 uM) is −0.1695; the “Results in α7+/− β-galactosidase assay” value (40 uM) is listed as −0.3533.

Turning to `CC(=O)Nc1ccc(-n2c(C)nc(=O)c(-c3ccccc3)c2C)cc1` [drawing 668], the “Results in α7+/− β-galactosidase assay” value is, setting by setting: (0.5 uM) 0.06264; (1 uM) −0.004; (5 uM) −0.1843; (10 uM) −0.1948; (20 uM) −0.4829; (40 uM) −0.7384.

For `CCc1nc2ccccc2c(C(=O)NCc2ccccc2)c1C` [drawing 669], the “Results in α7+/− β-galactosidase assay” value is, setting by setting: (0.5 uM) 0.09233; (1 uM) 0.1045; (5 uM) 0.3581; (10 uM) −0.08672; (20 uM) 0.0466; (40 uM) 0.1074.

In the case of `CCOC(=O)c1cc(-c2cccs2)nc2c1c(C)nn2-c1ccccn1` [drawing 670], the “Results in α7+/− β-galactosidase assay” value is on record as 0.09738 (0.5 uM); 0.1342 (1 uM); −0.1204 (5 uM); −0.2068 (10 uM); −0.3072 (20 uM); −0.5198 (40 uM).

For the molecule `CN1CCN(c2ccccc2/C=C2\C(=O)Nc3ccccc32)CC1` [drawing 671], the “Results in α7+/− β-galactosidase assay” value runs as follows: (0.5 uM) 0.1788; (1 uM) 0.04505; (5 uM) −0.08497; (10 uM) −0.09387; (20 uM) −0.1256; (40 uM) −0.3824.

Turning to `COC(=O)c1cc(S(=O)(=O)NCC2CCN(Cc3ccc(Cl)cc3)CC2)cn1C` [drawing 672], the “Results in α7+/− β-galactosidase assay” value by setting is: (0.5 uM) 0.2815; (1 uM) 0.1861; (5 uM) −0.03678; (10 uM) −0.03865; (20 uM) 0.1247; (40 uM) 0.0618.

For `COc1ccc(C(=O)Cn2nnc(-c3ccccc3NC(=O)c3ccco3)n2)cc1` [drawing 673], the “Results in α7+/− β-galactosidase assay” value (0.5 uM) stood at 0.4054; the “Results in α7+/− β-galactosidase assay” value (1 uM) turned out to be 0.1958; the “Results in α7+/− β-galactosidase assay” value (5 uM) is given as −0.2666; the “Results in α7+/− β-galactosidase assay” value (10 uM) is listed as −0.3483; the “Results in α7+/− β-galactosidase assay” value (20 uM) is reported as −0.6016; the “Results in α7+/− β-galactosidase assay” value (40 uM) was −0.7762.

Take `N#Cc1nc(COc2ccccc2)oc1N1CCCC1` [drawing 674]: the “Results in α7+/− β-galactosidase assay” value by setting is: (0.5 uM) 0.189; (1 uM) 0.0825; (5 uM) −0.1343; (10 uM) −0.1744; (20 uM) −0.09766; (40 uM) −0.3419.

With `CCCc1nnc(SCC(=O)NC2CCCC2)n1CCOC` [drawing 675], the “Results in α7+/− β-galactosidase assay” value runs as follows: (0.5 uM) 0.1622; (1 uM) 0.07572; (5 uM) −0.08939; (10 uM) −0.107; (20 uM) −0.1998; (40 uM) −0.413.

`Nc1cccc(/C=C/C(=O)O)c1` [drawing 676]: the “Results in α7+/− β-galactosidase assay” value is, setting by setting: (0.5 uM) 0.1361; (1 uM) 0.05647; (5 uM) −0.05605; (10 uM) 0.2478; (20 uM) −0.08666; (40 uM) −0.2769.

Turning to `CCCC1C(c2cc(OC)c(OC)c(OC)c2)=Nc2c1c(=O)[nH]c(=O)n2Cc1ccccc1` (stereo not drawn) [drawing 677], the “Results in α7+/− β-galactosidase assay” value (0.5 uM) is 0.221; the “Results in α7+/− β-galactosidase assay” value (1 uM) is given as 0.193; the “Results in α7+/− β-galactosidase assay” value (5 uM) is given as −0.1488; the “Results in α7+/− β-galactosidase assay” value (10 uM) is 0.1807; the “Results in α7+/− β-galactosidase assay” value (20 uM) was −0.03424; the “Results in α7+/− β-galactosidase assay” value (40 uM) was −0.4586.

With `CC(C)(C)c1ccc(C(=O)OCC(=O)Nc2sc3c(c2C#N)CCC3)cc1` [drawing 678], the “Results in α7+/− β-galactosidase assay” value is 0.2055 (0.5 uM); 0.1005 (1 uM); 0.3001 (5 uM); −0.02658 (10 uM); 0.3137 (20 uM); 0.2257 (40 uM).

`CCOc1cc(C)c(S(=O)(=O)N2CCCCC2)cc1C` [drawing 679]: the “Results in α7+/− β-galactosidase assay” value runs as follows: (0.5 uM) 0.1137; (1 uM) 0.2418; (5 uM) 0.02032; (10 uM) −0.02723; (20 uM) 0.1874; (40 uM) 0.2404.

For `Cc1cc(OCC(=O)NC(C)C)ccc1Cl` [drawing 680], the “Results in α7+/− β-galactosidase assay” value reads like this: (0.5 uM) −0.00101; (1 uM) 0.01964; (5 uM) −0.2128; (10 uM) −0.3742; (20 uM) −0.5775; (40 uM) −0.6915.

As for `Cc1ccsc1CN(C)CC(=O)Cc1ccc([N+](=O)[O-])cc1Cl` [drawing 681], the “Results in α7+/− β-galactosidase assay” value runs as follows: (0.5 uM) 0.233; (1 uM) 0.3513; (5 uM) −0.03377; (10 uM) −0.09863; (20 uM) −0.01304; (40 uM) −0.0403.
